Experimental data from article PMC8329300, “X-ray crystallography reveals molecular recognition mechanism for sugar binding in a melibiose transporter MelB” (Communications Biology, 2021).

Experiments:
MelBSt D59C = molecular target: T1, MelBSt D59C (Salmonella typhimurium, UniProt P30878, D59C); test: [3H]Melibiose transport time course with DW2 intact cells expressing MelBSt D59C; format: cell-based; details: 0.4 mM [3H]melibiose
T1 construct: Cys scanning mutagenesis for the full-length MelBSt; expressed in transfected cells; host or cells: E. coli DW2 (melA+, melB-, lacZ-Y-)
Protocol: (§1) Fig. 1 Functional characterizations. a [^3H] Melibiose transport time course with intact cells. E. coli DW2 strain (melB^−, lacZ^−Y^−) expressed with the WT, D59C, or D59A MelBSt mutants were subjected to [^3H]melibiose active transport assay at 0.4 mM and 10 mCi/mmol in the presence of 20 mM or 100 mM NaCl or LiCl by a fast filtration method. Inset, melibiose fermentation assay. Transformants with DW2 strain were plated on MacConkey agar plates containing 30 mM melibiose as the sole carbohydrate source and pH sensor neutral red, and incubated at 37 °C for 16–18 h before imaging. Number of tests = 3, from different batch of cells or duplicate measurements from same batch of sample. b Ligand binding by Trp→dansyl galactoside (D^2G) FRET assay. Purified proteins at 1 μM concentration in 20 mM Tris-HCl, pH 7.5, 100 mM CholCl, 10% glycerol, and 0.03% UDM were subjected to steady-state fluorescence measurements as described in Methods. On the time-trace, 1.8 μL of 1 mM D^2G at 10 μM was added into 180 μL of protein solutions at 1-min point, followed by supplying 10 μL of 5 mM DDMB or 5 mM α-NPG to displace the bound D^2G. For testing Na^+ or Li^+ binding, they are added into the solution before displacement with the second sugar. The structure of DDMB or α-NPG is shown in a chair form, and the carbon positions are labeled. Glycosidic bonds are indicated by arrows. Both are α-galactosides containing a substituent at the anomeric carbon-1. The data were from duplicate measurements.
(§2) The overexpression of MelBSt was carried out in the E. coli DW2 strain (melA^+, melB^−, and lacZ^−Y^−) from a constitutive expression plasmid pK95ΔAH/MelBSt/CHis10[9],[28],[33]. The D59C or D59A mutant with Cys or Ala at the position 59, respectively, was constructed previously[9] or in this study by QuikChange Site-Directed Mutagenesis kit and confirmed by DNA sequencing analysis. E. coli DW2 cells containing a given plasmid were grown in Luria-Bertani (LB) broth (5 g yeast extract and 10 g tryptone per liter with 171 mM NaCl) with 100 mg/L of ampicillin in a 37 °C shaker. The overnight cultures were diluted by 5% with LB broth supplemented with 0.5% glycerol and 100 mg/L of ampicillin, and constitutive overexpression was obtained by shaking at 30 °C for another 5 h.
(§3) E. coli DW2 cells expressing MelBSt were washed with 100 mM KPi, pH 7.5, to remove Na^+ contamination as described previously. The cell pellets were resuspended with the assay buffer (100 mM KPi, pH 7.5, 10 mM MgSO4) and adjusted to A420 of 10 (∼0.7 mg protein/ml). Using a fast filtration, transport time course at 0.4 mM melibiose (at specific activity of 10 mCi/mmol) was carried out in the absence or presence of NaCl or LiCl at 20 mM or 100 mM, respectively, and intracellular melibiose was determined as described previously.

[1] = system: E. coli DW2 strain (melB−, lacZ−Y−); test: [3H]Melibiose transport time course with DW2 intact cells; format: cell-based, Escherichia coli; set-up: unit not given here; details: 0.4 mM [3H]melibiose
Protocol: as §1, §2, §3

T1 sequence (P30878 whole entry D59C): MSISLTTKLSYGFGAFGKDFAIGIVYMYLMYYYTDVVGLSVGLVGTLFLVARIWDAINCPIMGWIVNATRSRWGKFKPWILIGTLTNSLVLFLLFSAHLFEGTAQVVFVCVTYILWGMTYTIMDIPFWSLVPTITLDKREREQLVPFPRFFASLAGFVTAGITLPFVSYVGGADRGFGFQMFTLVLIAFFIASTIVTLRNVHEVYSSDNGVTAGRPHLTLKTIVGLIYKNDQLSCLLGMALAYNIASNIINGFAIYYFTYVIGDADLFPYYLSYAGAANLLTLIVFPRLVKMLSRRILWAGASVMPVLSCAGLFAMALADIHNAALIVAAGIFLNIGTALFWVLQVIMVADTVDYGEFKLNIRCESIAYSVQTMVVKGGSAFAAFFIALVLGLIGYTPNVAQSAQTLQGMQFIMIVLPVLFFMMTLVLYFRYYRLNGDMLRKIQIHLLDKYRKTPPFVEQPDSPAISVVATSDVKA

OC[C@H]1O[C@H](OCC2O[C@@H](O)[C@H](O)[C@@H](O)[C@@H]2O)[C@H](O)[C@@H](O)[C@H]1O (some centres unmarked) [Melibiose]
Melibiose transport (MelBSt D59C; H+, Time 0.08): 2.90 | Melibiose transport (MelBSt D59C; H+, Time 0.17): 4.95 | Melibiose transport (MelBSt D59C; H+, Time 0.50): 7.21 | Melibiose transport (MelBSt D59C; H+, Time 1.00): 7.87 | Melibiose transport (MelBSt D59C; H+, Time 2.00): 9.68 | Melibiose transport (MelBSt D59C; H+, Time 5.00): 7.94 | Melibiose transport (MelBSt D59C; H+, Time 10.00): 6.75 | Melibiose transport (MelBSt D59C; H+, Time 30.00): 4.22 | Melibiose transport (MelBSt D59C; Li+, 20 mM, Time 0.08): 4.23 | Melibiose transport (MelBSt D59C; Li+, 20 mM, Time 0.17): 7.46 | Melibiose transport (MelBSt D59C; Li+, 20 mM, Time 0.50): 9.40 | Melibiose transport (MelBSt D59C; Li+, 20 mM, Time 1.00): 8.14 | Melibiose transport (MelBSt D59C; Li+, 20 mM, Time 2.00): 8.43 | Melibiose transport (MelBSt D59C; Li+, 20 mM, Time 5.00): 9.92 | Melibiose transport (MelBSt D59C; Li+, 20 mM, Time 10.00): 9.02 | Melibiose transport (MelBSt D59C; Li+, 20 mM, Time 30.00): 7.58 | Melibiose transport (MelBSt D59C; Li+, 100 mM, Time 0.08): 5.34 | Melibiose transport (MelBSt D59C; Li+, 100 mM, Time 0.17): 7.70 | Melibiose transport (MelBSt D59C; Li+, 100 mM, Time 0.50): 7.46 | Melibiose transport (MelBSt D59C; Li+, 100 mM, Time 1.00): 5.16 | Melibiose transport (MelBSt D59C; Li+, 100 mM, Time 2.00): 7.88 | Melibiose transport (MelBSt D59C; Li+, 100 mM, Time 5.00): 5.54 | Melibiose transport (MelBSt D59C; Li+, 100 mM, Time 10.00): 7.56 | Melibiose transport (MelBSt D59C; Li+, 100 mM, Time 30.00): 11.83 | Melibiose transport (MelBSt D59C; Na+, 20 mM, Time 0.08): 4.91 | Melibiose transport (MelBSt D59C; Na+, 20 mM, Time 0.17): 5.04 | Melibiose transport (MelBSt D59C; Na+, 20 mM, Time 0.50): 6.31 | Melibiose transport (MelBSt D59C; Na+, 20 mM, Time 1.00): 7.41 | Melibiose transport (MelBSt D59C; Na+, 20 mM, Time 2.00): 16.16 | Melibiose transport (MelBSt D59C; Na+, 20 mM, Time 5.00): 8.09 | Melibiose transport (MelBSt D59C; Na+, 20 mM, Time 10.00): 6.24 | Melibiose transport (MelBSt D59C; Na+, 20 mM, Time 30.00): 9.30 | Melibiose transport (MelBSt D59C; Na+, 100 mM, Time 0.08): 0.60 | Melibiose transport (MelBSt D59C; Na+, 100 mM, Time 0.17): 4.32 | Melibiose transport (MelBSt D59C; Na+, 100 mM, Time 0.50): 10.86 | Melibiose transport (MelBSt D59C; Na+, 100 mM, Time 1.00): 12.92 | Melibiose transport (MelBSt D59C; Na+, 100 mM, Time 2.00): 6.61 | Melibiose transport (MelBSt D59C; Na+, 100 mM, Time 5.00): 1.42 | Melibiose transport (MelBSt D59C; Na+, 100 mM, Time 10.00): 5.04 | Melibiose transport (MelBSt D59C; Na+, 100 mM, Time 30.00): 9.00 | Melibiose transport ([1]; H+, Time 0.08333): 5.1051 | Melibiose transport ([1]; H+, Time 0.16667): 0.0051 | Melibiose transport ([1]; H+, Time 0.5): 5.3907 | Melibiose transport ([1]; H+, Time 1): 1.8156 | Melibiose transport ([1]; H+, Time 2): 6.1659 | Melibiose transport ([1]; H+, Time 5): 3.5343 | Melibiose transport ([1]; H+, Time 10): 0.765 | Melibiose transport ([1]; H+, Time 30): 0.4743 | Melibiose transport ([1]; Li+, 20 mM, Time 0.08333): 4.9419 | Melibiose transport ([1]; Li+, 20 mM, Time 0.16667): 5.658 | Melibiose transport ([1]; Li+, 20 mM, Time 0.5): 3.542 | Melibiose transport ([1]; Li+, 20 mM, Time 1): 2.349 | Melibiose transport ([1]; Li+, 20 mM, Time 2): 6.918 | Melibiose transport ([1]; Li+, 20 mM, Time 5): 4.664 | Melibiose transport ([1]; Li+, 20 mM, Time 10): 5.3448 | Melibiose transport ([1]; Li+, 20 mM, Time 30): 4.1259 | Melibiose transport ([1]; Li+, 100 mM, Time 0.08333): 3.0914 | Melibiose transport ([1]; Li+, 100 mM, Time 0.16667): 1.7168 | Melibiose transport ([1]; Li+, 100 mM, Time 0.5): 6.0378 | Melibiose transport ([1]; Li+, 100 mM, Time 1): 1.9198 | Melibiose transport ([1]; Li+, 100 mM, Time 2): 3.77 | Melibiose transport ([1]; Li+, 100 mM, Time 5): 5.9682 | Melibiose transport ([1]; Li+, 100 mM, Time 10): 7.743 | Melibiose transport ([1]; Li+, 100 mM, Time 30): -0.2436 | Melibiose transport ([1]; Na+, 20 mM, Time 0.08333): 5.1051 | Melibiose transport ([1]; Na+, 20 mM, Time 0.16667): 0.0051 | Melibiose transport ([1]; Na+, 20 mM, Time 0.5): 5.3907 | Melibiose transport ([1]; Na+, 20 mM, Time 1): 1.8156 | Melibiose transport ([1]; Na+, 20 mM, Time 2): 6.1659 | Melibiose transport ([1]; Na+, 20 mM, Time 5): 3.5343 | Melibiose transport ([1]; Na+, 20 mM, Time 10): 0.765 | Melibiose transport ([1]; Na+, 20 mM, Time 30): 0.4743 | Melibiose transport ([1]; Na+, 100 mM, Time 0.08333): 0.1281 | Melibiose transport ([1]; Na+, 100 mM, Time 0.16667): 1.6531 | Melibiose transport ([1]; Na+, 100 mM, Time 0.5): 2.6962 | Melibiose transport ([1]; Na+, 100 mM, Time 1): 0.671 | Melibiose transport ([1]; Na+, 100 mM, Time 2): -3.3611 | Melibiose transport ([1]; Na+, 100 mM, Time 5): 0.2867 | Melibiose transport ([1]; Na+, 100 mM, Time 10): 0.0793 | Melibiose transport ([1]; Na+, 100 mM, Time 30): -2.3912
